The text below walks through data of patent publication US9006269B2, “Azetidine derivatives” (Vernalis (R&D) Ltd., priority 2008, dated 2015).

One data set deals with human FAAH 1 (Homo sapiens (Human), UniProt O00519). Description: Human FAAH 1 assay (AAMCA fluorescence). It counts as biochemical. The conditions noted are these: 1 hour pre-incubation with compound, 10 nM FAAH; read-out: FAAH Human IC50 (nM) 60 minutes (n = 2). The procedure:
Part B Human FAAH 1 Assay
Human FAAH 1 activity was determined by measuring the liberation of the highly fluorescent 7-amino, 4-methyl Coumarin (AMC) generated during hydrolysis of the substrate arachidonoyl 7-amino, 4-methyl coumarin amide (AAMCA) by FAAH. Inhibition of human FAAH 1 activity was determined as a percentage reduction of the fluorescence determined in the absence of compound.
The assay was carried out in black-walled, clear bottom, 384-well plates. 27.5 μl of human FAAH 1 protein (in FAAH assay buffer: 50 mM Hepes, 0.01% Triton X-100, 1 mM EDTA, 0.5 mg/ml BSA (fatty-acid-free), pH 8.2) was pre-incubated, at 10 nM, with increasing concentrations of compounds (2.5 μl in 100% DMSO) for 1 hour at room temperature. 2.5 μl of DMSO was added for ‘total’ controls (100% FAAH activity) and 2.5 μl of URB-597, a known inhibitor of FAAH activity, (at a final, saturating, concentration of […]) was used for ‘non-specific’ controls (0 FAAH activity). 20 μl of 7.5 μM AAMCA substrate (in FAAH assay buffer) was then added to all wells and incubated at room temperature for a further 4 hours. Fluorescence was determined at an excitation wavelength of 355 nm and an emission wavelength of 460 nm using a Flexstation plate reader (Molecular Devices, UK). Inhibition of human FAAH 1 activity, by the compounds, was determined as the percentage reduction in relative fluorescence units (RFU) compared to the ‘total’ controls (in the absence of compound) minus the ‘non-specific’ controls. IC50 values were determined, from 10-point dose response curves, in XL-Fit using a 4-Parameter Logistic Model (Sigmoidal Dose-Response Model).

Data set [1] concerns carrageenan-induced thermal hypersensitivity. The experiment in a line: Rat carrageenan induced thermal hyperalgesia model of inflammatory pain. Type of data set: in vivo. The procedure:
Part C Rat Carrageenan Induced Thermal Hyperalgesia Model of Inflammatory Pain.
Male Wistar rats were assessed for thermal pain sensitivity by applying a focused light beam onto the hind paws and recording the time to paw withdrawal, before and after local intraplantar administration of carrageenan. After 3 h, thermal pain sensitivity was reassessed in treated and untreated hind paws prior to dosing with test compound or vehicle. Indomethacin was administered as a positive control.
Male Sprague Dawley rats were tail-marked, and acclimatised to the plantar boxes on 3 separate occasions (6, 5 and 1 day prior to the test day) for at least 5 min on each occasion. On the pre-test day, the rats were habituated to the test room for at least 30 min prior to testing. The rats were put into the Hargreaves plantar boxes, allowed to settle down for approx 3-5 min, and challenged with the mobile radiant heat source. The latency to withdraw both left and right hindpaws from the heat source was determined on 2 occasions (3 min apart). The mean across the 2 challenges was recorded as the baseline for each animal. Rats 18 and 30 were not used in the study as they had very high baseline readings, and they were replaced by 61 and 63. Rats were then allocated to drug treatments ensuring the baseline latencies were balanced across groups.
On the test day, rats received intraplantar carrageenan lambda (100 uL of 1% in saline), or saline in right hindpaw 3 hours before testing. Four hours before testing, rats received VER-158416 (1, 3, or 10 mg/kg) or vehicle (5% EtOH: 95% (1% methylcellulose in water) p.o. Subsequently, 30 min before testing, rats received a second injection of either indomethacin 10 mg/kg or vehicle (50% 0.1M Na2CO3: 47.5% phosphate buffered saline (PBS): 2.5% 1M HCl) i.p. At the scheduled test time following drug treatment, the latency to withdraw the paw from the radiant heat source was reassessed by a single reading.
For example, the compound of Example 13 above was tested as follows:
Rats were dosed with intraplantar carrageenan at t=0; the compound of Example 13 (1, 3 & 10 mg/kg po) or vehicle (5% EtOH: 95% (1% methylcellulose in water) at t=2 h; indomethacin (10 mg/kg ip) or vehicle at t=2.5 h and thermal sensitivity was measured at t=3 h. Thus all rats received both oral and ip dosing.

Data set [2] is described as follows: Plasma concentrations after oral administration in laboratory rats. Type of data set: in vivo, rat.
The target in the next data set is FAAH (Homo sapiens (Human), UniProt O00519). The experiment in a line: Intrinsic FAAH inhibitory potency (summary statement). Type of data set: biochemical. Conditions: qualitative statement.
Data set [3] concerns the target rat FAAH protein (30-579) (Rattus norvegicus (Rat), UniProt P97612). Description: Rat FAAH inhibition assay (AAMCA fluorescence). Type of data set: biochemical. The conditions noted are these: 3-hour pre-incubation with compound, 120 nM FAAH; read-out: FAAH Rat IC50 (nM) 180 minutes. From the text: Rat FAAH Inhibition Assay
Active rat FAAH protein (30-579) was isolated as described in the literature. The coding sequence of amino acids 30-579 of rat FAAH were cloned into the expression vector pET28a to provide an N-terminal His-tag. Following expression, the His-tagged FAAH′ (30-579) was isolated using a method based on Patricelli et al., 1998; Biochemistry vol 37, p 15177 with a combination of chelating sepharose, heparin sepharose and size exclusion chromatography.
FAAH activity was determined by measuring the liberation of the highly fluorescent 7-amino, 4-methyl Coumarin (AMC) generated during hydrolysis of the substrate Arachidonoyl 7-Amino, 4-methyl Coumarin Amide (AAMCA) by FAAH. Inhibition of FAAH activity was determined as a percentage reduction of the fluorescence determined in the absence of compound.
The assay was carried out in black-walled, clear bottom, 384-well plates. 27.5 μl of FAAH protein (in FAAH assay buffer: 50 mM Hepes, 0.01% Triton X-100, 1 mM EDTA, 0.5 mg/ml BSA (fatty-acid-free), pH 8.2) was pre-incubated, at 120 nM, with increasing concentrations of compounds (2.5 μl in 100% DMSO) for 0, 1 or 3 hours at room temperature. 2.5 μl of DMSO was added for ‘total’ controls (100% FAAH activity) and 2.5 μl of URB-597, a known inhibitor of FAAH activity, (at a final, saturating, concentration of 10 μM) was used for ‘non-specific’ controls (0% FAAH activity). 20 μl of 7.5 μM AAMCA substrate (in FAAH assay buffer) was then added to all wells and incubated at room temperature for a further 1.5 hours. Fluorescence was determined at an excitation wavelength of 355 nm and an emission wavelength of 460 nm using a Flexstation plate reader (Molecular Devices, UK). Inhibition of FAAH activity, by the compounds, was determined as the percentage reduction in relative fluorescence units (RFU) compared to the ‘total’ controls (in the absence of compound) minus the ‘non-specific’ controls. IC50 values were determined, from 10-point dose response curves, in XL-Fit using a 4-Parameter Logistic Model (Sigmoidal Dose-Response Model).
The following Table 1 provides the 3-hour incubation results of testing the compounds of Examples 1-4 herein in the above rat FAAH inhibition assay.

Sequence of FAAH (O00519 whole entry): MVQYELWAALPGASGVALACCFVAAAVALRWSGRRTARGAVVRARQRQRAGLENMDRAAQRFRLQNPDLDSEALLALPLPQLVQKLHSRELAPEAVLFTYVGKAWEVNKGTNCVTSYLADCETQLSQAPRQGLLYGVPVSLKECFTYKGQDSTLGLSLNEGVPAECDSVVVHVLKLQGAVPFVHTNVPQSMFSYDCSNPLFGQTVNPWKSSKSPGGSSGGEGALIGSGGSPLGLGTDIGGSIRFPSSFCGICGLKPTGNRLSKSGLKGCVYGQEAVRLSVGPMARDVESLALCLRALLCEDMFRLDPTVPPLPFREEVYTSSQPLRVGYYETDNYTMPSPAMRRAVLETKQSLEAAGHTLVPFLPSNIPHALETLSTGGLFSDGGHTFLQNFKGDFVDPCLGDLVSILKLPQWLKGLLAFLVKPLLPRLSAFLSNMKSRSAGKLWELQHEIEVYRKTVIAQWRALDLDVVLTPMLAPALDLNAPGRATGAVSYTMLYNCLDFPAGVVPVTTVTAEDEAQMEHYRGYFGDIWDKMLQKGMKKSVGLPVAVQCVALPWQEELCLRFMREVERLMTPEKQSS
Sequence of human FAAH 1 (O00519 whole entry): as above
Sequence of rat FAAH protein (30-579) (P97612 30-579): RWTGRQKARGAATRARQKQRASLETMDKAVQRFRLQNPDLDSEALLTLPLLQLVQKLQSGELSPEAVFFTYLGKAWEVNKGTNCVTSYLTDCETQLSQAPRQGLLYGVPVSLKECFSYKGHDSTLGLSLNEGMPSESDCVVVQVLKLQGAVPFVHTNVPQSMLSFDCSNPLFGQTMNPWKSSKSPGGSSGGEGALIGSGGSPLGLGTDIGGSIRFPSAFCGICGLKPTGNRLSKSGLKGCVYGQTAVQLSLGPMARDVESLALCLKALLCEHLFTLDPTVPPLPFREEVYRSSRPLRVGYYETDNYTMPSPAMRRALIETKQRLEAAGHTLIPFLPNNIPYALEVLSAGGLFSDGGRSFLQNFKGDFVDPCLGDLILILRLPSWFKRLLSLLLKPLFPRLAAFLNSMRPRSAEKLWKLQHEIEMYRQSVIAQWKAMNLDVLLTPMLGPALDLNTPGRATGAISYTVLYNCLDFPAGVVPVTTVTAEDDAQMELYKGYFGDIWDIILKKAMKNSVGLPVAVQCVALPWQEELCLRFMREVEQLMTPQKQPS

Regarding `COCCOc1cccc(-c2ccc(OC3CN(C(=O)Nc4ccncn4)C3)nc2)c1` [Example 5, 3-{5-[3-(2-Methoxy-ethoxy)-phenyl]-pyridin-2-yloxy}-azetidine-1-carboxylic acid pyrimidin-4-ylamide], on human FAAH 1, the IC50 (in general, the point on the concentration scale where inhibition reaches its midpoint) worked out at 9 nM.
`O=C(Nc1cccnn1)N1CC(Oc2ccc(-c3ccccc3)cn2)C1` [Example 13, 3-(5-Phenyl-pyridin-2-yloxy)-azetidine-1-carboxylic acid pyridazin-3-ylamide]: the IC50 at human FAAH 1 came out at 38 nM. Further, in data set [1] (1, 3, 10 mg/kg p.o., rat), the “effect on contralateral paw sensitivities to thermal pain” value is listed as “no effect”, the “inhibition of carrageenan-induced thermal hypersensitivity” value is “dose-related inhibition” and the “reduction of pain sensitivity to below normal levels” value is “did not reduce pain sensitivity to below normal levels”. In addition, the “statistical significance of inhibition vs vehicle/carrageenan group” value in data set [1] (at 3 and 10 mg/kg doses p.o., one way ANOVA, Newman-Keuls) is “reached statistical significance”. Besides, the “plasma concentrations after oral administration” value (shortened to “plasma concentrations”) in data set [2] was “high and prolonged”. On FAAH, the intrinsic-FAAH inhibitory potency entry is “good”.
Take `COc1ccccc1-c1ccc(OC2CN(C(=O)Nc3cccnn3)C2)nc1` [Example 17, 3-[5-(2-Methoxy-phenyl)-pyridin-2-yloxy]-azetidine-1-carboxylic acid pyridazin-3-ylamine]: the “plasma concentrations” value in data set [2] is “high and prolonged”.
Consider `COc1ccc(OC)c(-c2ccc(OC3CN(C(=O)Nc4cccnn4)C3)nc2)c1` [Example 12, 3-[5-(2,5-Dimethoxy-phenyl)-pyridin-2-yloxy]-azetidine-1-carboxylic acid pyridazin-3-ylamide], for which, on human FAAH 1, the IC50 is 12 nM.
`O=C(Nc1cccc(F)c1)N1CC(Oc2ccc(-c3ccccc3)cc2)C1` [Example 2, 3-(Biphenyl-4-yloxy)-azetidine-1-carboxylic acid (3-fluoro-phenyl)-amide]: the IC50 in data set [3] came out at 279 nM.
In the case of `COCCOc1ccc(Cl)c(-c2ccc(OC3CN(C(=O)Nc4cccnn4)C3)nc2)c1` [Example 15, 3-{5-[2-Chloro-5-(2-methoxy-ethoxy)-phenyl]-pyridin-2-yloxy}-azetidine-1-carboxylic acid pyridazin-3-yl-amide], the IC50 at human FAAH 1 was 7 nM.
Consider `O=C(Nc1cccnn1)N1CC(Oc2ccc(-c3ccccc3F)cn2)C1` [Example 18, 3-[5-(2-Fluoro-phenyl)-pyridin-2-yloxy]-azetidine-1-carboxylic acid pyridazin-3-ylamide], for which, on human FAAH 1, the IC50 worked out at 16 nM. Moreover, the “plasma concentrations” value in data set [2] was “high and prolonged”. Moreover, the intrinsic-FAAH inhibitory potency entry at FAAH is on record as “good”.
`O=C(Nc1ccccc1)N1CC(Oc2ccc(-c3ccccc3)cc2)C1` [Example 1, 3-(biphenyl-4-yloxy)-azetidine-1-carboxylic acid phenylamide]: the IC50 in data set [3] came to 135 nM.
As for `COCCOc1cccc(-c2ccc(OC3CN(C(=O)Nc4cccnn4)C3)nc2)c1` [Example 7, 3-{5-[3-(2-Methoxy-ethoxy)-phenyl]-pyridin-2-yloxy}-azetidine-1-carboxylic acid pyridazin-3-ylamide], on human FAAH 1, the IC50 amounted to 19 nM. In addition, in data set [2], the “plasma concentrations” value was “high and prolonged”. Also, on FAAH, the intrinsic-FAAH inhibitory potency result is reported as “good”.
In the case of `O=C(Nc1cccnn1)N1CC(Oc2ccc(-c3c(F)cccc3F)cn2)C1` [Example 14, 3-[5-(2,6-Difluoro-phenyl)-pyridin-2-yloxy]-azetidine-1-carboxylic acid pyridazin-3-ylamide], at human FAAH 1, the IC50 is 14 nM.
For `O=C(Nc1ccccc1F)N1CC(Oc2ccc(-c3ccccc3)cc2)C1` [Example 3, 3-(Biphenyl-4-yloxy)-azetidine-1-carboxylic acid (2-fluoro-phenyl)-amide], the IC50 in data set [3] turned out to be 77 nM.
With `O=C(Nc1cnccn1)N1CC(Oc2ccc(-c3ccccc3F)cn2)C1` [Example 16, 3-[5-(2-Fluoro-phenyl]-pyridin-2-yloxy]-azetidine-1-carboxylic acid pyrazin-2-ylamide], the IC50 at human FAAH 1 turned out to be 42 nM.
Still for that read-out and setting: the same measure for `COCCOc1cccc(-c2ccc(OC3CN(C(=O)Nc4cccnc4)C3)nc2)c1` [Example 8, 3-{5-[3-(2-Methoxy-ethoxy)-phenyl]-pyridin-2-yloxy}-azetidine-1-carboxylic acid pyridin-3-ylamide]: 18 nM; for `COc1cccc(-c2ccc(OC3CN(C(=O)Nc4cccnn4)C3)nc2)c1F` [Example 19, 3-[5-(2-Fluoro-3-methoxy-phenyl)-pyridin-2-yloxy]-azetidine-1-carboxylic acid pyridazin-3-ylamide]: 26 nM; for `COCCOc1cccc(-c2ccc(OC3CN(C(=O)Nc4cnccn4)C3)nc2)c1` [Example 6, 3-{5-[3-(2-Methoxy-ethoxy)-phenyl]-pyridin-2-yloxy}-azetidine-1-carboxylic acid pyrazin-2-ylamide]: 73 nM.
In the case of `O=C(Nc1cccnn1)N1CC(Oc2ccc(-c3cccc(OCCO)c3)cn2)C1` [Example 10, 3-{5-[3-(2-Hydroxy-ethoxy)-phenyl]-pyridin-2-yloxy}-azetidine-1-carboxylic acid pyridazin-3-ylamide], the IC50 on human FAAH 1 came out at 49 nM.
`COCCOc1ccc(OC)c(-c2ccc(OC3CN(C(=O)Nc4cccnn4)C3)nc2)c1` [Example 11, 3-{5-[2-Methoxy-5-(2-methoxy-ethoxy)-phenyl]-pyridin-2-yloxy}-azetidine-1-carboxylic acid pyridazin-3-ylamide]: the IC50 at human FAAH 1 came out at 19 nM.
The same measure, in the same setting: next, `O=C(Nc1cccnn1)N1CC(Oc2ccc(-c3cccc(OCCOCc4ccccc4)c3)cn2)C1` [Example 9, 3-{5-[3-(2-Benzyloxy-ethoxy)-phenyl]-pyridin-2-yloxy}-azetidine-1-carboxylic acid pyridazin-3-ylamide]: 3 nM.
